Reference: patent US20230067910A1, “NOVEL COMPOUNDS FOR THE DIAGNOSIS, TREATMENT AND PREVENTION OF DISEASES ASSOCIATED WITH THE AGGREGATION OF ALPHA-SYNUCLEIN” (MODAG GMBH, priority 2019, published 2023)
Like-named read-outs stand apart in the source and are kept apart here.

Columns and labels:
[1] = target: T1, alpha-synuclein (sonicated fibrils) (Homo sapiens, UniProt P37840); assay: Modified competition binding assay, protocol 3b, reference ligand [3H]-compound 2; conditions: Table 5, reference ligand [3H]-compound 2 (1 nM)
T1 construct: made in house; host or cells: E. coli
Description: (§1) Alpha-synuclein and tau46 were purified from E. coli according to established protocols (Nuscher B, et al., J. Biol. Chem., 2004; 279(21):21966-75), Aβ1-42 was obtained from rPeptide, Watkinsville, Ga., USA. Fibrils were prepared by aggregation of recombinant protein via constant agitation. In detail, 70 μM of alpha-synuclein mixed with 100 mM NaCl in 50 mM Tris, pH 7.0+0.02% NaN3 were incubated at 1,400 rpm, 37° C. for 96 h. 10 μM of tau46 were incubated with 0.03 mg/ml heparin in 50 mM Tris, pH=7.0 at 1,000 rpm, 37° C. for 72 h. Aβ1-42 was solved in 20 mM NaPi, pH=8.0+0.2 mM EDTA+0.02% NaN3 (Deeg A A, et al., Biochim. Biophys. Acta, 2015; 1850(9): 1884-90; Goedert M, et al. Nature, 1996; 383(6600): 550-3).
For competition binding experiments, a fixed concentration of recombinant αSYN fibrils (sonicated, 15 nM/well) was incubated with 1 nM [^3H]-compound 1 or [3H]-compound 2 and decreasing concentrations of a serial dilution of non-labeled competitor (serial dilution 1:4 or 1:3.5 or 1:3 providing the concentration ranges of non-labeled competitor 1 μM-[…] 1 μM-4 nM or 1 μM-[…], respectively) in 30 mM Tris-HCl, 10% ethanol, 0.05% Tween20, pH 7.4 in a total volume of 200 μL/well. Plates were incubated for 4.5 hours at RT covered by removable sealing tape (PerkinElmer, Waltham, Mass., USA).
Filtration and readout were performed as described for saturation binding assays. [^3H]-labeled ligand binding [in CMP] was plotted against increasing competitor concentrations and data points were fitted using non-linear regression analysis to calculate the IC50 and Ki values (GraphPad Software, Inc., Version 7.03, La Jolla (Calif.), USA). In the competition binding assay with sonicated recombinant αSYN fibrils, the calculation of Ki values was done based on KD values of 0.6 nM and 0.2 nM for compound 1 and compound 2, respectively.
(§2) The fibril competition assay provides Ki values. Ki is a quantitative measure that represents the concentration of the non-radioactive tested compound (competitor ligand) required to replace 50% of a reference compound, in this case [H]-compound 1 (1 nM) or [H]-compound 2 (1 nM), which is bound to the target structures (1 nM), in our case recombinant alpha-synuclein and tau46 fibrils. This assay is suitable for a screening of non-radioactive ligands.

[2] = target: T1, alpha-synuclein (sonicated fibrils); assay: Modified competition binding assay, protocol 3b, reference ligand [3H]-compound 1; conditions: reference ligand [3H]-compound 1 (1 nM)
Description: Fibrils were prepared by aggregation of recombinant protein via constant agitation. In detail, 70 μM of alpha-synuclein mixed with 100 mM NaCl in 50 mM Tris, pH 7.0+0.02% NaN3 were incubated at 1,400 rpm, 37° C. for 96 h. 10 μM of tau46 were incubated with 0.03 mg/ml heparin in 50 mM Tris, pH=7.0 at 1,000 rpm, 37° C. for 72 h.
Plates were incubated for 4.5 hours at RT covered by removable sealing tape (PerkinElmer, Waltham, Mass., USA).
Filtration and readout were performed as described for saturation binding assays.
The fibril competition assay provides Ki values. […] This assay is suitable for a screening of non-radioactive ligands.

[3] = test system: H4 cells overexpressing full-length alpha-synuclein; assay: Cellular model of aggregated alpha-synuclein-dependent toxicity, full-length alpha-synuclein H4 cells; type: cell-based; conditions: 10 μM compound, 100 μM FeCl3, 0.75% DMSO, 48 h; for inhibition at 10 µM: read-out: Change in fraction of condensed nuclei (rel. to DMSO control) [%]
Description: (§3) To identify potential therapeutically useful effects, compounds were tested in two cellular models of aggregated alpha-synuclein-dependent toxicity in H4 cells. These cellular models allow for the inducible overexpression of alpha-synuclein hemi-Venus fusion constructs (V1S+SV2) or full-length alpha-synuclein (the model is described in detail in: Bartels M, Weckbecker D, Kuhn P H, Ryazanov S, Leonov A, Griesinger C, Lichtenthaler S F, Bötzel K, Giese A: Iron-mediated aggregation and toxicity in a novel neuronal cell culture model with inducible alpha-synuclein expression, Sci. Rep. 2019 Jun. 24; 9(1):9100). Moreover, addition of DMSO and FeCl3 promotes the aggregation of alpha-synuclein which is associated with an increase in cytotoxicity. The cell culture assay uses these effects by determining the change in the number of cells and the change in the percentage of condensed nuclei, which is indicative of apoptosis, in order to obtain information on which compounds show the most promising effects and thus might be therapeutically useful.
(§4) In these experiments, cells were incubated with 100 μM FeCl3 and 0.75% DMSO in the presence of 10 μM anle138c as a positive control, compounds 1 to 19 (10 μM), or DMSO as a negative control. After 48 h, the cells were imaged with an OPERA high-throughput imaging system and analyzed using Acapella software (Perkin Elmer). […] A reduction in the fraction of condensed nuclei (in the absence of a strong reduction in cell number) is indicative of a beneficial therapeutic effect.

[4] = test system: H4 cells overexpressing alpha-synuclein hemi-Venus fusion constructs (V1S+SV2); assay: Cellular model of aggregated alpha-synuclein-dependent toxicity, V1S+SV2 H4 cells; type: cell-based; conditions: 10 μM compound, 100 μM FeCl3, 0.75% DMSO, 48 h; for inhibition at 10 µM: read-out: Change in fraction of condensed nuclei (rel. to DMSO control) [%]
Description: as §3, §4

[5] = target: T2, alpha-synuclein (fibrils) (Homo sapiens, UniProt P37840); assay: Competition binding assay, protocol 3a, reference ligand [3H]-compound 1, alpha-synuclein fibrils; conditions: reference ligand [3H]-compound 1 (1 nM)
T2 construct: made in house; host or cells: E. coli
Description: as §1
A fixed concentration of sonicated human recombinant αSYN (200 nM/well) or tau46 (208 nM/well) fibrils diluted in phosphate buffered saline (PBS) were incubated in low binding plates (96 well micro test plate, Ratiolab GmbH, Dreieich, Germany) together with 1 nM [^3H]-compound 1 and 1:4 serial dilutions of the cold compound of interest starting from 1 μM diluted in 50 mM Tris-base, 10% EtOH, 0.05% Tween20, pH 7.4. For the calculation of Ki values the KD value of compound 1 toward sonicated human recombinant αSYN fibrils was set to 3 nM.
Assay plates were incubated under agitation at 37° C. for 2 h covered by plastic foil (Resealable tape, PerkinElmer, Waltham, Mass., USA). Prior to harvesting, a filter (Printed filtermat B, PerkinElmer, Waltham, Mass., USA) was incubated with 5 mg/mL polyethylenimine (PEI, Poly(ethyleneimine) solution, Sigma Aldrich Chemie GmbH, Taufkirchen, Germany) at 4° C. for 30 min. After incubation, bound and free ligands were separated by vacuum filtration using a harvester (Filtermate harvester, PerkinElmer, Waltham, Mass., USA). The filter was washed three times with buffer cooled to 4° C. and subsequently dried in the microwave for 2 min at medium power. The filter was sealed in a plastic bag (Sample bag for MicroBeta®, PerkinElmer, Waltham, Mass., USA) together with added scintillator (BETAPLATE SCINT, PerkinElmer, Waltham, Mass., USA). Accumulation of tritium was counted in a liquid scintillation counter (Wallac MicroBeta® TriLux, 1450 LSC & Luminescence Counter, PerkinElmer, Waltham, Mass., USA) immediately. Radioactivity was plotted against the increasing tritium-labeled compound or cold compound concentrations. Data points were fitted using nonlinear regression analysis in GraphPad Prism (GraphPad Software, Inc., Version 7.03, La Jolla, Calif., USA).
as §2

[6] = Table 4b, read-out: Ki (nM) alpha-synuclein (sonicated fibrils)
[7] = Experiment A, read-out: Ki (nM) alpha-synuclein (fibrils)
[8] = Experiment B, read-out: Ki (nM) alpha-synuclein (sonicated fibrils)
[9] = Table 6 comparison series, read-out: Ki (nM), sonicated alpha-synuclein fibrils

| SMILES | Ki [1] | Ki [2, 6] | Ki [5, 7] | Ki [5, 8] | Ki [2, 9] | Change in cell number (rel. to DMSO control) [%] [3] | inhibition at 10 µM [3] | Change in cell number (rel. to DMSO control) [%] [4] | inhibition at 10 µM [4] |
| --- | --- | --- | --- | --- | --- | --- | --- | --- | --- |
| CNc1ccc(-c2cc(-c3cccc(Br)n3)[nH]n2)cc1 [Compound 58, 4-[5-(6-bromopyridin-2-yl)-1H-pyrazol-3-yl]-N-methylaniline] | 5 nM | 5.1 nM |  |  |  |  |  |  |  |
| Fc1cncc(-c2cc(-c3ccc4c(c3)OCO4)n[nH]2)c1 [Compound 13, 3-[3-(1,3-benzodioxol-5-yl)-1H-pyrazol-5-yl]-5-fluoropyridine] | 189 nM |  |  |  |  | −18.1% | 55.5% | −6.1% | -46% |
| Cn1nc(-c2ccnc(Br)c2)cc1-c1ccc2c(c1)OCO2 [Compound 19, 4-[5-(1,3-benzodioxol-5-yl)-1-methyl-1H-pyrazol-3-yl]-2-bromopyridine] |  |  |  |  |  | −30.3% | 13.2% | −5.7% | -3.2% |
| CN(C)c1ncc(-c2cc(-c3ccnc(F)c3)[nH]n2)cn1 [Compound 8, 5-[5-(2-fluoropyridin-4-yl)-1H-pyrazol-3-yl]-N,N-dimethylpyrimidin-2-amine] | 9.9 nM |  | 43 nM |  |  | −5.7% | -10.7% | −4.5% | -14.2% |
| Nc1ccc(-c2cc(-c3ccnc(Br)c3)[nH]n2)cc1 [Compound 7, 4-[5-(2-bromopyridin-4-yl)-1H-pyrazol-3-yl]aniline] |  |  |  |  |  | −37.8% | 62.5% | −30.8% | 46.1% |
| CN(C)c1ncc(-c2cc(-c3ccnc(Br)c3)[nH]n2)cn1 [Compound 6, 5-[5-(2-bromopyridin-4-yl)-1H-pyrazol-3-yl]-N,N-dimethylpyrimidin-2-amine] | 8.9 nM |  | 24 nM | > 300 nM |  | −31.0% | -5.4% | −34.0% | -53.6% |

The next lines start with results.

| Ki [1] | Ki [2, 6] | Ki [5, 7] | Ki [5, 8] | Ki [2, 9] | SMILES | Change in cell number (rel. to DMSO control) [%] [3] | inhibition at 10 µM [3] | Change in cell number (rel. to DMSO control) [%] [4] | inhibition at 10 µM [4] |
| --- | --- | --- | --- | --- | --- | --- | --- | --- | --- |
| 5.5 nM | 3.1 nM |  |  |  | Brc1cccc(-c2cc(-c3cc4c(cn3)OCO4)n[nH]2)c1 [Compound 20, 6-[3-(3-bromophenyl)-1H-pyrazol-5-yl]-1,3-dioxolo[4,5-c]pyridine] |  |  |  |  |
| 7.4 nM |  |  |  |  | Fc1cccc(-c2cc(-c3ccc4c(c3)OCO4)n[nH]2)n1 [Compound 11, 2-[3-(1,3-benzodioxol-5-yl)-1H-pyrazol-5-yl]-6-fluoropyridine] | −20.0% | -13.7% | −17.4% | -123% |
| 2.8 nM | 3.3 nM |  |  |  | CNc1ccc(-c2cc(-c3cc(Br)ccn3)[nH]n2)cc1 [Compound 57, 4-[5-(4-bromopyridin-2-yl)-1H-pyrazol-3-yl]-N-methylaniline] |  |  |  |  |
| 13 nM |  | 27 nM | > 60 nM |  | CN(C)c1ncc(-c2cc(-c3cccc(Br)c3)[nH]n2)cn1 [Compound 5, 5-[5-(3-bromophenyl)-1H-pyrazol-3-yl]-N,N-dimethylpyrimidin-2-amine] | −14.6% | 34.2% | −12.4% | 27.3% |
|  |  |  |  | 1.9 nM | CN(C)c1ccc(-c2cc(-c3cccc(Br)c3)[nH]n2)cc1 [Compound 65, reference compound] |  |  |  |  |
|  |  |  |  | 3.4 nM | CNc1ccc(-c2cc(-c3cccc(Br)c3)[nH]n2)cc1 [Compound 64, reference compound] |  |  |  |  |
| 1.3 nM |  |  |  |  | Clc1cc(-c2cc(-c3ccc4c(c3)OCO4)n[nH]2)ccn1 [Compound 14, 4-[3-(1,3-benzodioxol-5-yl)-1H-pyrazol-5-yl]-2-chloropyridine] | −32.0% | 47.3% | −21.9% | -61% |
| 3.3 nM | 2.6 nM |  |  |  | CNc1ccc(-c2cc(-c3cncc(Br)c3)[nH]n2)cc1 [Compound 56, 4-[5-(5-bromopyridin-3-yl)-1H-pyrazol-3-yl]-N-methylaniline] |  |  |  |  |
